Consider 31 compounds from patent publication US7781436B2 (Hoffmann-La Roche Inc., priority 2005, dated 2010).

The target in the first assay is T1, human V1a receptor (Homo sapiens, UniProt P37288).
T1 construct: expressed in transfected cells; host or cells: HEK293 cells, transiently transfected; membranes prepared
T1 sequence (P37288 whole entry): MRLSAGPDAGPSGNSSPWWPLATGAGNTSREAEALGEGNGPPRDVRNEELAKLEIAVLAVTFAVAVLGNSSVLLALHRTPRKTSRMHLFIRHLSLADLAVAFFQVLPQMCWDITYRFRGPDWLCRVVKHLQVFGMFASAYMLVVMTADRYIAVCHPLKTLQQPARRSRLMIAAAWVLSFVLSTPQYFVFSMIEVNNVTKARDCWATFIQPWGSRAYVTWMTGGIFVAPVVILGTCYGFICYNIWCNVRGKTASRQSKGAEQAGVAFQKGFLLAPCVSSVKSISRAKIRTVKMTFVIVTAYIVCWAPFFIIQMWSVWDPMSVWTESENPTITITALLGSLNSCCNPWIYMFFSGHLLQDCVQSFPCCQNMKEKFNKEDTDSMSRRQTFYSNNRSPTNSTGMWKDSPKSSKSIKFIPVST
The assay is described as follows: human V1a receptor binding (3H-Vasopressin SPA, membranes of transfected HEK293 cells).
Details: not given
The procedure: The human V1a receptor was cloned by RT-PCR from total human liver RNA. The coding sequence was subcloned in an expression vector after sequencing to confirm the identity of the amplified sequence. […] Cell membranes were prepared from HEK293 cells transiently transfected with the expression vector and grown in 20 liter fermenters with the following protocol.
50 g of cells are resuspended in 30 ml freshly prepared ice cold Lysis buffer (50 mM HEPES, 1 mM EDTA, 10 mM MgCl2 adjusted to pH=7.4+ complete cocktail of protease inhibitor (Roche Diagnostics)). Homogenized with Polytron for 1 min and sonicated on ice for 2×2 minutes at 80% intensity (Vibracell sonicator). The preparation is centrifuged 20 min at 500 g at 4° C., the pellet is discarded and the supernatant centrifuged 1 hour at 43,000 g at 4° C. (19'000 rpm). The pellet is resuspended in 12.5 ml Lysis buffer+12.5 ml Sucrose 20% and homogenized using a Polytron for 1-2 min. The protein concentration is determined by the Bradford method, and aliquots are stored at −80° C. until use. For binding studies 60 mg Yttrium silicate SPA beads (Amersham) are mixed with an aliquot of membrane in binding buffer (50 mM Tris, 120 mM NaCl, 5 mM KCl, 2 mM CaCl2, 10 mM MgCl2) for 15 minutes with mixing. 50 ul of bead/membrane mixture is then added to each well of a 96 well plate, followed by 50 ul of 4 nM 3H-Vasopressin (American Radiolabeled Chemicals). For total binding measurement 100 ul of binding buffer are added to the respective wells, for non-specific binding 100 ul of […] cold vasopressin and for compound testing 100 ul of a serial dilution of each compound in 2% DMSO. The plate is incubated 1 h at room temperature, centrifuged 1 min at 1000 g and counted on a Packard Top-Count. Non-specific binding counts are subtracted from each well, and data is normalized to the maximum specific binding set at 100%. To calculate an IC 50 the curve is fitted using a non-linear regression model (XLfit) and the Ki is calculated using the Cheng-Prussoff equation.
As for `CN1CCC[C@@H]1Cn1cc(C(=O)N2CCN(c3ccccc3F)CC2)c2ccc(Cl)cc21` [Example 215, [6-Chloro-1-((R)-1-methyl-pyrrolidin-2-ylmethyl)-1H-indol-3-yl]-[4-(2-fluoro-phenyl)-piperazin-1-yl]-methanone], the Ki worked out at 6 nM.

Consider `COc1cccc(OC)c1C1CCN(C(=O)c2cn(Cc3ccccn3)c3cc(Cl)ccc23)CC1` [Example 47, (6-Chloro-1-pyridin-2-ylmethyl-1H-indol-3-yl)-[4-(2,6-dimethoxy-phenyl)-piperidin-1-yl]-methanone], for which the Ki amounted to 4 nM.

Turning to `CN(C)C(=O)Cn1cc(C(=O)N2CCC(C#N)(c3ccccc3F)CC2)c2ccc(Cl)cc21` [Example 61, 2-{6-Chloro-3-[4-cyano-4-(2-fluoro-phenyl)-piperidine-1-carbonyl]-indol-1-yl}-N,N-dimethyl-acetamide], the Ki worked out at 13 nM.

In turn, `O=C(c1cn(C[C@@H]2CCCN2)c2cc(Cl)ccc12)N1CCN(c2ccccc2F)CC1` [Example 200, (6-Chloro-1-(S)-1-pyrrolidin-2-ylmethyl-1H-indol-3-yl)-[4-(2-fluoro-phenyl)-piperazin-1-yl]-methanone] came in with a Ki of 21 nM.

In turn, `CNC(=O)Cn1cc(C(=O)N2CCN(c3nccc4sccc34)CC2)c2ccc(Cl)cc21` [Example 224, 2-[6-Chloro-3-(4-thieno[3,2-c]pyridin-4-yl-piperazine-1-carbonyl)-indol-1-yl]-N-methyl-acetamide] came in with a Ki of 27 nM.

In the case of `CNC(=O)Cn1cc(C(=O)N2CCN(c3ccccc3F)CC2)c2ccc(Cl)cc21` [Example 176, 2-{6-Chloro-3-[4-(2-fluoro-phenyl)-piperazine-1-carbonyl]-indol-1-yl}-N-methyl-acetamide], the Ki worked out at 8 nM.

With `CN(C)C(=O)Cn1cc(C(=O)N2CCN(c3ccc(F)cc3F)CC2)c2ccc(Cl)cc21` [Example 205, 2-{6-Chloro-3-[4-(2,4-difluoro-phenyl)-piperazine-1-carbonyl]-indol-1-yl}-N,N-dimethyl-acetamide], the Ki was found to be 10 nM.

With `COc1ccccc1C1=CCN(C(=O)c2c(C)n(Cc3ccccc3)c3ccccc23)CC1` [Example 3], the affinity corresponds to a Ki of 14 nM.

The compound `CC(=O)NCCn1cc(C(=O)N2CCN(c3ccccc3F)CC2)c2ccc(Cl)cc21` [Example 217, N-(2-{6-Chloro-3-[4-(2-fluoro-phenyl)-piperazine-1-carbonyl]-indol-1-yl}-ethyl)-acetamide] gave a Ki of 21 nM.

`COc1cccc(OC)c1C1CCN(C(=O)c2cn(CC(N)=O)c3cc(Cl)ccc23)CC1` [Example 81, 2-{6-Chloro-3-[4-(2,6-dimethoxy-phenyl)-piperidine-1-carbonyl]-indol-1-yl}-acetamide] yielded a Ki of 13 nM.

`CN(CCn1cc(C(=O)N2CCN(c3ccccc3F)CC2)c2ccc(Cl)cc21)S(C)(=O)=O` [Example 220] came in with a Ki of 17 nM.

For the compound `Cc1c(C(=O)N2CCC(c3ccccc3)CC2)c2ccccc2n1Cc1ccccc1` [Example 24], the affinity corresponds to a Ki of 10 nM.

Turning to `CN(C)C(=O)Cn1cc(C(=O)N2CCC(c3ccncc3)CC2)c2ccc(Cl)cc21` [Example 122, 2-[6-Chloro-3-(3,4,5,6-tetrahydro-2H-[4,4′]bipyridinyl-1-carbonyl)-indol-1-yl]-N,N-dimethyl-acetamide], affinity was put at a Ki of 10 nM.

The assay is the same for the next values; noted with them: displacement of 4 nM 3H-Vasopressin, HEK293 cell membranes, Ki by Cheng-Prussoff from IC50; read-out: Ki.
As for `CS(=O)(=O)NCCn1cc(C(=O)N2CCN(c3ccccc3F)CC2)c2ccc(Cl)cc21` [Example 218, N-(2-{6-Chloro-3-[4-(2-fluoro-phenyl)-piperazine-1-carbonyl]-indol-1-yl}-ethyl)-methanesulfonamide], the Ki came out at 16 nM.

On to `CN1CCN(C(=O)Cn2cc(C(=O)N3CCC(c4ccccc4OC(F)(F)F)CC3)c3ccc(Cl)cc32)CC1` [Example 88, 2-{6-Chloro-3-[4-(2-trifluoromethoxy-phenyl)-piperidine-1-carbonyl]-indol-1-yl}-1-(4-methyl-piperazin-1-yl)-ethanone], for which the Ki is 7 nM.

As to `CNC(=O)Cn1cc(C(=O)N2CCC(c3ccccc3C(F)(F)F)CC2)c2ccc(Cl)cc21` [Example 96, 2-{6-Chloro-3-[4-(2-trifluoromethyl-phenyl)-piperidine-1-carbonyl]-indol-1-yl}-N-methyl-acetamide], the Ki was 11 nM.

In the case of `COc1cccc(OC)c1C1CCN(C(=O)c2cn(CC(=O)NCCN)c3cc(Cl)ccc23)CC1` [Example 84, N-(2-Amino-ethyl)-2-{6-chloro-3-[4-(2,6-dimethoxy-phenyl)-piperidine-1-carbonyl]-indol-1-yl}-acetamide], the inhibitory constant (Ki) stood at 11 nM.

In the case of `COc1ccccc1C1CCN(C(=O)c2cn(CC(=O)OC(C)(C)C)c3cc(Cl)ccc23)CC1` [Example 59, {6-Chloro-3-[4-(2-methoxy-phenyl)-piperidine-1-carbonyl]-indol-1-yl}-acetic acid tert-butyl ester], the Ki came out at 2 nM.

As for `COc1ccccc1N1CCN(C(=O)c2cn(CCN(C)C)c3cc(Cl)ccc23)CC1` [Example 163, [6-Chloro-1-(2-dimethylamino-ethyl)-1H-indol-3-yl]-[4-(2-methoxy-phenyl)-piperazin-1-yl]-methanone], the Ki stood at 22 nM.

For the compound `CN(C)C(=O)Cn1cc(C(=O)N2CCC(c3cccc4c3OCC4)CC2)c2ccc(Cl)cc21` [Example 72, 2-{6-Chloro-3-[4-(2,3-dihydro-benzofuran-7-yl)-piperidine-1-carbonyl]-indol-1-yl}-N,N-dimethyl-acetamide], the Ki was 3 nM.

Consider `CNC(=O)Cn1cc(C(=O)N2CCN(c3ncccc3I)CC2)c2ccc(Cl)cc21` [Example 225, 2-{6-Chloro-3-[4-(3-iodo-pyridin-2-yl)-piperazine-1-carbonyl]-indol-1-yl}-N-methyl-acetamide], for which the Ki turned out to be 12 nM.

As to `CNC(=O)Cn1cc(C(=O)N2CCN(c3ccc(F)cc3F)CC2)c2ccc(Cl)cc21` [Example 190, 2-{6-Chloro-3-[4-(2,4-difluoro-phenyl)-piperazine-1-carbonyl]-indol-1-yl}-N-methyl-acetamide], the Ki came to 19 nM.

On to `CN(C)CCn1cc(C(=O)N2CCC(c3ccccc3F)CC2)c2ccc(Cl)cc21` [Example 115, [6-Chloro-1-(2-dimethylamino-ethyl)-1H-indol-3-yl]-[4-(2-fluoro-phenyl)-piperidin-1-yl]-methanone], for which the Ki was determined as 11 nM.

Regarding `CNC(=O)Cn1cc(C(=O)N2CCC(c3cccc4c3OCC4)CC2)c2ccc(Cl)cc21` [Example 76, 2-{6-Chloro-3-[4-(2,3-dihydro-benzofuran-7-yl)-piperidine-1-carbonyl]-indol-1-yl}-N-methyl-acetamide], the Ki turned out to be 8 nM.

For `CNC(=O)Cn1cc(C(=O)N2CCC(c3ccccc3OC(F)(F)F)CC2)c2ccc(Cl)cc21` [Example 90, 2-{6-Chloro-3-[4-(2-trifluoromethoxy-phenyl)-piperidine-1-carbonyl]-indol-1-yl}-N-methyl-acetamide], the Ki amounted to 8 nM.

On to `COc1cccc(OC)c1C1CCN(C(=O)c2cn(CC(=O)N(C)C)c3ccccc23)CC1` [Example 62, 2-{3-[4-(2,6-Dimethoxy-phenyl)-piperidine-1-carbonyl]-indol-1-yl}-N,N-dimethyl-acetamide], for which the Ki was 11 nM.

Consider `CN1CCN(C(=O)Cn2cc(C(=O)N3CCN(c4ccccc4F)CC3)c3ccc(Cl)cc32)CC1` [Example 172, 2-{6-Chloro-3-[4-(2-fluoro-phenyl)-piperazine-1-carbonyl]-indol-1-yl}-1-(4-methyl-piperazin-1-yl)-ethanone], for which the Ki came out at 10 nM.

As to `CN(C)C(=O)Cn1cc(C(=O)N2CCN(c3ncccc3C(F)(F)F)CC2)c2ccc(Cl)cc21` [Example 211, 2-{6-Chloro-3-[4-(3-trifluoromethyl-pyridin-2-yl)-piperazine-1-carbonyl]-indol-1-yl}-N,N-dimethyl-acetamide], the Ki is 13 nM.

As to `COc1ccccc1C1CCN(C(=O)c2cn(CCN(C)C)c3cc(Cl)ccc23)CC1` [Example 108, [6-Chloro-1-(2-dimethylamino-ethyl)-1H-indol-3-yl]-[4-(2-methoxy-phenyl)-piperidin-1-yl]-methanone], the Ki turned out to be 8 nM.

On to `CNC(=O)Cn1cc(C(=O)N2CCN(c3ccccc3OC)CC2)c2ccc(Cl)cc21` [Example 162, 2-{6-Chloro-3-[4-(2-methoxy-phenyl)-piperazine-1-carbonyl]-indol-1-yl}-N-methyl-acetamide], for which the Ki worked out at 27 nM.

Regarding `COc1cccc(OC)c1C1CCN(C(=O)c2cn(Cc3cccnc3)c3cc(Cl)ccc23)CC1` [Example 46, (6-Chloro-1-pyridin-3-ylmethyl-1H-indol-3-yl)-[4-(2,6-dimethoxy-phenyl)-piperidin-1-yl]-methanone], the inhibitory constant (Ki) amounted to 7 nM.

Broadly, the Ki is the equilibrium dissociation constant of an inhibitor or competing ligand from its target.
